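Cultured in 96-well plates, cells were exposed to test compound for 48 hours across five concentrations. GI50: concentration for 50% inhibition of growth.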 Calls of active or inactive are those of the source. Rule as the data show it: active = GI50 up to about 1.1 µM and inactive = higher.
Assays:
Experiment in all cases: inhibition of tumour cell growth, NCI panel, 48 h
[1] = tested on: HCT-15
[2] = tested on: MOLT-4
[3] = tested on: HCC 2998
[4] = tested on: UACC-257
[5] = tested on: HL-60
[6] = tested on: M14
[7] = tested on: NCI-H522
[8] = tested on: NCI-H460
[9] = tested on: SF-539
[10] = tested on: OVCAR-8
[11] = tested on: CAKI-1
[12] = tested on: RXF 393
[13] = tested on: SNB-19
[14] = tested on: OVCAR-4
[15] = tested on: ACHN
[16] = tested on: EKVX
[17] = tested on: TK-10

Row | Compound | GI50 [1] [µM] | GI50 [2] | GI50 [3] | GI50 [4] | GI50 [5] | GI50 [6] | GI50 [7] | GI50 [8] | GI50 [9] | GI50 [10] | GI50 [11] | GI50 [12] | GI50 [13] | GI50 [14] | GI50 [15] | GI50 [16] | GI50 [17]
1 | O=C(O)c1ccc([N+](=O)[O-])c2c(=O)c3ccccc3[nH]c12 | > 100 | > 100 µM (inactive) | > 100 µM (inactive) | > 100 µM (inactive) | > 100 µM (inactive) | > 100 µM (inactive) | > 100 µM (inactive) | > 100 µM (inactive) | > 100 µM (inactive) | > 100 µM (inactive) | > 100 µM (inactive) | > 100 µM (inactive) | > 100 µM (inactive) | > 100 µM (inactive) | > 100 µM (inactive) | – | –
2 | CN(CC(=O)O)S(=O)(=O)c1ccc(F)cc1 | > 100 | > 100 µM (inactive) | > 100 µM (inactive) | > 100 µM (inactive) | > 100 µM (inactive) | > 100 µM (inactive) | > 100 µM (inactive) | > 100 µM (inactive) | > 100 µM (inactive) | > 100 µM (inactive) | > 100 µM (inactive) | > 100 µM (inactive) | > 100 µM (inactive) | > 100 µM (inactive) | > 100 µM (inactive) | > 100 µM (inactive) | > 100 µM (inactive)
3 | O=C(Nc1nc2ccc([N+](=O)[O-])cc2s1)C(=O)C(C1OC(=O)c2ccccc21)[N+](=O)[O-] (configuration not stated) | 66.7 | 88.5 µM (inactive) | > 100 µM (inactive) | > 100 µM (inactive) | 63.2 µM (inactive) | > 100 µM (inactive) | – | > 100 µM (inactive) | 49.9 µM (inactive) | > 100 µM (inactive) | 70.1 µM (inactive) | 27.5 µM (inactive) | 58.6 µM (inactive) | > 100 µM (inactive) | 39.3 µM (inactive) | 31.5 µM (inactive) | 69.2 µM (inactive)
4 | COc1cc(C2C(C(=O)Nc3cc(F)c(F)cc3F)=C(C)NC(C)=C2C(=O)Nc2cc(F)c(F)cc2F)ccc1O | – | 11.3 µM (inactive) | 13.9 µM (inactive) | 17.9 µM (inactive) | 15.7 µM (inactive) | 25.2 µM (inactive) | 13.3 µM (inactive) | 27.3 µM (inactive) | 26.8 µM (inactive) | 25.4 µM (inactive) | 12.3 µM (inactive) | 10.6 µM (inactive) | 29.2 µM (inactive) | 17.3 µM (inactive) | 18.8 µM (inactive) | 14.9 µM (inactive) | 28.3 µM (inactive)
5 | Cc1ccc(Cl)c(NC(=O)C(=O)C(C(=O)c2ccncc2)C2OC(=O)c3ccccc32)c1 (configuration not stated) | > 100 | – | > 100 µM (inactive) | > 100 µM (inactive) | > 100 µM (inactive) | > 100 µM (inactive) | > 100 µM (inactive) | > 100 µM (inactive) | > 100 µM (inactive) | > 100 µM (inactive) | > 100 µM (inactive) | > 100 µM (inactive) | – | > 100 µM (inactive) | > 100 µM (inactive) | > 100 µM (inactive) | > 100 µM (inactive)
6 | COc1ccc2oc(-c3cc4cc(OC)ccc4o3)cc2c1 | > 100 | > 100 µM (inactive) | > 100 µM (inactive) | > 100 µM (inactive) | > 100 µM (inactive) | > 100 µM (inactive) | > 100 µM (inactive) | > 100 µM (inactive) | – | > 100 µM (inactive) | > 100 µM (inactive) | > 100 µM (inactive) | > 100 µM (inactive) | > 100 µM (inactive) | > 100 µM (inactive) | > 100 µM (inactive) | > 100 µM (inactive)
7 | O=c1cccccc1NCCCNc1cccccc1=O | > 100 | > 100 µM (inactive) | – | > 100 µM (inactive) | 43.2 µM (inactive) | > 100 µM (inactive) | > 100 µM (inactive) | 41.6 µM (inactive) | > 100 µM (inactive) | > 100 µM (inactive) | > 100 µM (inactive) | > 100 µM (inactive) | > 100 µM (inactive) | – | > 100 µM (inactive) | > 100 µM (inactive) | –
8 | CCc1ccccc1NC(=O)/C(CC(=O)c1c(C)[n+]([O-])c2ccccc2[n+]1[O-])=N\NS(=O)(=O)c1ccc(C)cc1 | 33.7 | 18 µM (inactive) | 47.1 µM (inactive) | 23.9 µM (inactive) | 15.8 µM (inactive) | 32.8 µM (inactive) | 16.1 µM (inactive) | 25.6 µM (inactive) | 36.6 µM (inactive) | 27 µM (inactive) | – | > 100 µM (inactive) | > 100 µM (inactive) | 22.5 µM (inactive) | 57 µM (inactive) | 46 µM (inactive) | > 100 µM (inactive)
9 | Cc1ccc(NC(=O)CCc2nnc3s/c(=C\c4cccc([N+](=O)[O-])c4)c(=O)n23)cc1 | > 100 | > 100 µM (inactive) | > 100 µM (inactive) | > 100 µM (inactive) | – | > 100 µM (inactive) | 52.6 µM (inactive) | > 100 µM (inactive) | 25.3 µM (inactive) | > 100 µM (inactive) | > 100 µM (inactive) | > 100 µM (inactive) | 84.5 µM (inactive) | > 100 µM (inactive) | 84.7 µM (inactive) | > 100 µM (inactive) | > 100 µM (inactive)
10 | CC(C)(C)C1CCP(=O)(c2ccccc2)CC1 (configuration not stated) | > 100 | > 100 µM (inactive) | > 100 µM (inactive) | > 100 µM (inactive) | > 100 µM (inactive) | > 100 µM (inactive) | > 100 µM (inactive) | > 100 µM (inactive) | > 100 µM (inactive) | > 100 µM (inactive) | – | > 100 µM (inactive) | > 100 µM (inactive) | > 100 µM (inactive) | > 100 µM (inactive) | > 100 µM (inactive) | > 100 µM (inactive)
11 | O=C1OC(c2ccccc2)C2CC3CC4(CCC3CN12)OCCO4 (configuration not stated) | > 100 | > 100 µM (inactive) | – | > 100 µM (inactive) | 67.8 µM (inactive) | > 100 µM (inactive) | 0.142 µM (active) | > 100 µM (inactive) | > 100 µM (inactive) | > 100 µM (inactive) | > 100 µM (inactive) | > 100 µM (inactive) | > 100 µM (inactive) | 88.5 µM (inactive) | – | > 100 µM (inactive) | > 100 µM (inactive)
12 | C[n+]1cccc(NC(=O)c2ccc(NC(=O)C34CCC(C(=O)Nc5ccc(C(=O)Nc6ccc[n+](C)c6)cc5)(CC3)CC4)cc2)c1 | 58.2 | 56.2 µM (inactive) | – | 15.7 µM (inactive) | 1.87 µM (inactive) | > 100 µM (inactive) | 5.42 µM (inactive) | 7.45 µM (inactive) | 80.5 µM (inactive) | 42.7 µM (inactive) | – | 22.1 µM (inactive) | 24.9 µM (inactive) | > 100 µM (inactive) | 17.9 µM (inactive) | 26.9 µM (inactive) | –
13 | Cc1ccc(NC(=O)c2cccc([N+](=O)[O-])c2O)c([N+](=O)[O-])c1 | 14.4 | > 10 µM (inactive) | 15.9 µM (inactive) | 16.2 µM (inactive) | 25.9 µM (inactive) | 16.7 µM (inactive) | 14.1 µM (inactive) | 5.58 µM (inactive) | 14.7 µM (inactive) | 12.5 µM (inactive) | 29.5 µM (inactive) | 11.3 µM (inactive) | 22.4 µM (inactive) | 13.5 µM (inactive) | 16.4 µM (inactive) | 23.2 µM (inactive) | –

Reference: ChEMBL document CHEMBL1201862, “PubChem BioAssay data set” (2004)
